Measurements published in US10189841B2, “Purinones as ubiquitin-specific protease 1 inhibitors” (Forma Therapeutics, Inc., priority 2015, dated 2019).

These molecules were tested against USP1 (construct USP1 (I-785, GG670, 671AA)/UAF1 (I-677)-Flag) (Homo sapiens (Human), UniProt O94782, G670A/G671A) (assay: Ubiquitin-Rhodamine 110 assay for USP1 activity). Settings: USP1/UAF1 25 pM, Ub-Rh110 25 nM, 30 min preincubation.
Chain of USP1 (construct USP1 (I-785, GG670, 671AA)/UAF1 (I-677)-Flag) (O94782 whole entry G670A/G671A): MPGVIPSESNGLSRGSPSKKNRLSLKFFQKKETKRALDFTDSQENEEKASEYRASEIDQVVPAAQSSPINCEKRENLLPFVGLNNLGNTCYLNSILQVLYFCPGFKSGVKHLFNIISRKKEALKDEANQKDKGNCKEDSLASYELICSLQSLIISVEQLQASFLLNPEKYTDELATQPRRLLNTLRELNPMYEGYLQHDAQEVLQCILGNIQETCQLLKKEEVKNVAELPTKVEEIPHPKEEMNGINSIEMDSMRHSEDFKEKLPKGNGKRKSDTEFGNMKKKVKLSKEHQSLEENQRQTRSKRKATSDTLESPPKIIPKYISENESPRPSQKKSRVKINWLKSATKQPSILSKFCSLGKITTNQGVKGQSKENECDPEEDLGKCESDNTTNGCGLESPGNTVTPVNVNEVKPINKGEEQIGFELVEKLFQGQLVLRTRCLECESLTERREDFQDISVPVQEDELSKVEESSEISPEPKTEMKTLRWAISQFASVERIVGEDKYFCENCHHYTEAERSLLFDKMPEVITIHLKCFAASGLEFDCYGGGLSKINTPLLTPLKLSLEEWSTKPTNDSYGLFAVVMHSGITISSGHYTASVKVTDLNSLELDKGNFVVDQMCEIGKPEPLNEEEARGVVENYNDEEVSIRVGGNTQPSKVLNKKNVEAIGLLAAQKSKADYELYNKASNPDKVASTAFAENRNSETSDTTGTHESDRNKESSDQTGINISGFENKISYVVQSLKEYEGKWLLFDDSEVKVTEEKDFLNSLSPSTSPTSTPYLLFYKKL
Chain of USP1 (construct USP1 (I-785, GG670, 671AA)/UAF1 (I-677)-Flag) (Q8TAF3 whole entry partner): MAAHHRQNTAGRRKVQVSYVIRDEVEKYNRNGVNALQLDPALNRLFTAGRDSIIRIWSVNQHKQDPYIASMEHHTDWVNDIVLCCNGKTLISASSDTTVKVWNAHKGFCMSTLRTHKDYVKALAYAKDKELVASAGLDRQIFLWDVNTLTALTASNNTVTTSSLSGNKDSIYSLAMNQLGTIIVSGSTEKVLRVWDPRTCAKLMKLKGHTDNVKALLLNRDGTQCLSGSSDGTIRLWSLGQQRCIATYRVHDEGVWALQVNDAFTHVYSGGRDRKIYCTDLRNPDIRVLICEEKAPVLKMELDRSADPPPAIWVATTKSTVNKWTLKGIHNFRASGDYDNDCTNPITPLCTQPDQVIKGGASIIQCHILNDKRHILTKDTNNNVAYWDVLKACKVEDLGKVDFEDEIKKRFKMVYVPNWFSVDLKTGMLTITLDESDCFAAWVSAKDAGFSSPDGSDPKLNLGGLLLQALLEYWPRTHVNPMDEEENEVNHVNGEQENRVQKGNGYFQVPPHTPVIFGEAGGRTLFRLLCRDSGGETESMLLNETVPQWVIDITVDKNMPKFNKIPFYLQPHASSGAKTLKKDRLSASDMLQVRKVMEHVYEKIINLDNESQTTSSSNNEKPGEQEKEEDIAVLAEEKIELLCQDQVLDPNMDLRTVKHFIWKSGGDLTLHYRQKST
Type: biochemical
Method: Example 53: Ubitquin-Rhodamine 110 Assay for USP1 Activity
The HTS assay was performed in a final volume of 20 μL in assay buffer containing 20 mM Tris-HCl (pH 8.0, (1M Tris-HCl, pH 8.0 solution; Corning 46-031-CM)), 2 mM CaCl2 (1M Calcium Chloride solution; Sigma #21114) 1 mM GSH (L-Glutathione reduced; Sigma #G4251), 0.01% Prionex ([…] filtered, Sigma #G-0411), and 0.01% Triton X-100. Stock compound solutions were stored at −20° C. as 10 mM in DMSO. Up to 1 month prior to the assay, 2 mM test compounds were pre-dispensed into assay plates (Black, low volume; Corning #3820) and frozen at −20° C. Prestamped assay plates were allowed to come to room temperature on the day of the assay. For the screen, 100 nL of 2 mM was pre-dispensed for a final screening concentration of […] (DMSO(fc)=0.5%). The final concentration of the enzyme (USP1, construct USP1 (I-785, GG670, 671AA)/UAF1 (I-677)-Flag; Viva) in the assay was 100 pM. Final substrate (Ub-Rh110; Ubiquitin-Rhodamine 110, R&D Systems #U-555) concentration was 25 nM with [Ub-Rh110]<<Km. […] Plates were incubated stacked for 45 minutes at room temperature before fluorescence was read on the Envision (Excitation at 485 nm and Emission at 535 nm; Perkin Elmer) or on the PheraSTAR (Excitation at 485 nm and Emission at 535 nm; BMG Labtech)
Nanoliter quantities of either an 8-point or 10-point, 3-fold serial dilution in DMSO was pre-dispensed into assay plates (Perkin Elmer, ProxiPlate-384 F Plus, #6008269) for a final test concentration range of either 25 μM to 11 nM or 25 μM to 1.3 nM, respectively. The final concentration of the enzyme (USP1, construct USP1 (I-785, GG670, 671AA)/UAF1 (I-677)-Flag; Viva) in the assay was 25 pM. Final substrate (Ub-Rh110; Ubiquitin-Rhodamine 110, R&D Systems #U-555) concentration was 25 nM with [Ub-Rh110]<<Km. […] Plates were incubated stacked for 20 minutes at room temperature before 5 μL of stop solution (final concentration of 10 mM citric acid in assay buffer (Sigma, #251275-500G)). Fluorescence was read on the Envision (Excitation at 485 nm and Emission at 535 nm; Perkin Elmer) or on the PheraSTAR (Excitation at 485 nm and Emission at 535 nm; BMG Labtech).
For both assay formats data were reported as percent inhibition compared with control wells based on the following equation: % inh=[1−((FLU−AveLow)/(AveHigh−AveLow))]×100 where FLU=measured Fluorescence, AveLow=average Fluorescence of no enzyme control (n=16), and AveHigh=average Fluorescence of DMSO control (n=16). IC50 values were determined by curve fitting of the standard 4 parameter logistic fitting algorithm included in the Activity Base software package: IDBS XE Designer Model205. Data is fitted using the Levenburg Marquardt algorithm.
With `Cn1cc(C(F)(F)F)nc1-c1ccc(Cn2c(=O)[nH]c3cnc(-c4cccnc4F)nc32)cc1` [Compound I-57, 2-(2-fluoropyridin-3-yl)-9-(4-(1-methyl-4-(trifluoromethyl)-1H-imidazol-2-yl)benzyl)-7,9-dihydro-8H-purin-8-one] the IC50 was 0.2 to 2 µM.
`Cc1cc(C(F)F)nn1-c1ccc(Cn2c(=O)[nH]c3cnc(-c4cccnc4C(C)C)nc32)cc1` [Compound I-58, 9-(4-(3-(difluoromethyl)-5-methyl-1H-pyrazol-1-yl)benzyl)-2-(2-isopropylpyridin-3-yl)-7,9-dihydro-8H-purin-8-one] was tested, and the IC50 was < 0.05 µM.
In the case of `CC(C)c1ncccc1-c1ncc2[nH]c(=O)n(Cc3ccc(-n4ccc(F)n4)cc3)c2n1` [Compound I-59, 9-(4-(3-fluoro-1H-pyrazol-1-yl)benzyl)-2-(2-isopropylpyridin-3-yl)-7,9-dihydro-8H-purin-8-one], the IC50 is reported as 0.05 to 0.2 µM.
`COc1cc(C(F)(F)F)nn1-c1ccc(Cn2c(=O)[nH]c3cnc(-c4cccnc4C(C)C)nc32)cc1` [Compound I-60, 2-(2-isopropylpyridin-3-yl)-9-(4-(5-methoxy-3-(trifluoromethyl)-1H-pyrazol-1-yl)benzyl)-7,9-dihydro-8H-purin-8-one] was tested, and the IC50 was < 0.05 µM.
With `CCc1ncccc1-c1ncc2c(n1)n(Cc1ccc(-c3nc(C(F)(F)F)cn3C)cc1)c(=O)n2C` [Compound I-61, 2-(2-ethylpyridin-3-yl)-7-methyl-9-(4-(1-methyl-4-(trifluoromethyl)-1H-imidazol-2-yl)benzyl)-7,9-dihydro-8H-purin-8-one] the IC50 was 0.05 to 0.2 µM.
For `Cc1ncccc1-c1ncc2c(n1)n(Cc1ccc(-c3nc(C(F)(F)F)cn3C)cc1)c(=O)n2C` [Compound I-62, 7-methyl-9-(4-(1-methyl-4-(trifluoromethyl)-1H-imidazol-2-yl)benzyl)-2-(2-methylpyridin-3-yl)-7,9-dihydro-8H-purin-8-one], the IC50 was 0.2 to 2 µM.
With `CC(C)c1ccccc1-c1ncc2c(n1)n(Cc1ccc(-c3nc(C(F)(F)F)cn3C)cc1)c(=O)n2C` [Compound I-63, 2-(2-isopropylphenyl)-7-methyl-9-(4-(1-methyl-4-(trifluoromethyl)-1H-imidazol-2-yl)benzyl)-7,9-dihydro-8H-purin-8-one] the IC50 was < 0.05 µM.
With `Cn1cc(C(F)(F)F)nc1-c1ccc(Cn2c(=O)[nH]c3cnc(-c4cccnc4C(F)F)nc32)cc1` [Compound I-64, 2-(2-(difluoromethyl)pyridin-3-yl)-9-(4-(1-methyl-4-(trifluoromethyl)-1H-imidazol-2-yl)benzyl)-7,9-dihydro-8H-purin-8-one] the IC50 was 0.05 to 0.2 µM.
With `CC(C)c1c(F)cccc1-c1ncc2c(n1)n(Cc1ccc(-c3nc(C(F)(F)F)cn3C)cc1)c(=O)n2C` [Compound I-65, 2-(3-fluoro-2-isopropylphenyl)-7-methyl-9-(4-(1-methyl-4-(trifluoromethyl)-1H-imidazol-2-yl)benzyl)-7,9-dihydro-8H-purin-8-one] the IC50 was < 0.05 µM.
With `Cc1nc(F)ccc1-c1ncc2c(n1)n(Cc1ccc(-c3nc(C(F)(F)F)cn3C)cc1)c(=O)n2C` [Compound I-66, 2-(6-fluoro-2-methylpyridin-3-yl)-7-methyl-9-(4-(1-methyl-4-(trifluoromethyl)-1H-imidazol-2-yl)benzyl)-7,9-dihydro-8H-purin-8-one] the IC50 was 0.2 to 2 µM.
With `CC(C)c1ncc(F)cc1-c1ncc2[nH]c(=O)n(Cc3ccc(-c4nc(C(F)(F)F)cn4C)cc3)c2n1` [Compound I-67, 2-(5-fluoro-2-isopropylpyridin-3-yl)-9-(4-(1-methyl-4-(trifluoromethyl)-1H-imidazol-2-yl)benzyl)-7,9-dihydro-8H-purin-8-one] the IC50 was < 0.05 µM.
`Cc1cc(N2CCC2)nn1-c1ccc(Cn2c(=O)[nH]c3cnc(-c4cccnc4C(C)C)nc32)cc1` [Compound I-68, 9-(4-(3-(azetidin-1-yl)-5-methyl-1H-pyrazol-1-yl)benzyl)-2-(2-isopropylpyridin-3-yl)-7,9-dihydro-8H-purin-8-one] showed an IC50 of 0.05 to 0.2 µM.
With `CC(C)c1ncc(F)cc1-c1ncc2c(n1)n(Cc1ccc(-c3nc(C(F)(F)F)cn3C)cc1)c(=O)n2C` [Compound I-69, 2-(5-fluoro-2-isopropylpyridin-3-yl)-7-methyl-9-(4-(1-methyl-4-(trifluoromethyl)-1H-imidazol-2-yl)benzyl)-7,9-dihydro-8H-purin-8-one] the IC50 was < 0.05 µM.
In the case of `Cn1cc(C(F)(F)F)nc1-c1ccc(Cn2c(=O)n(C)c3cnc(-c4cccnc4C4CC4)nc32)cc1` [Compound I-71, 2-(2-cyclopropylpyridin-3-yl)-7-methyl-9-(4-(1-methyl-4-(trifluoromethyl)-1H-imidazol-2-yl)benzyl)-7,9-dihydro-8H-purin-8-one], the IC50 is reported as < 0.05 µM.
`Cn1cc(C(F)(F)F)nc1-c1ccc(Cn2c(=O)n(C)c3cnc(-c4cccnc4C(F)F)nc32)cc1` [Compound I-72, 2-(2-(difluoromethyl)pyridin-3-yl)-7-methyl-9-(4-(1-methyl-4-(trifluoromethyl)-1H-imidazol-2-yl)benzyl)-7,9-dihydro-8H-purin-8-one] showed an IC50 of 0.2 to 2 µM.
In the case of `COc1ccc(-c2ncc3[nH]c(=O)n(Cc4ccc(-c5nc(C(F)(F)F)cn5C)cc4)c3n2)c(C)n1` [Compound I-73, 2-(6-methoxy-2-methylpyridin-3-yl)-9-(4-(1-methyl-4-(trifluoromethyl)-1H-imidazol-2-yl)benzyl)-7,9-dihydro-8H-purin-8-one], the IC50 is reported as < 0.05 µM.
`CC(C)Oc1ccc(-c2ncc3[nH]c(=O)n(Cc4ccc(-c5nc(C(F)(F)F)cn5C)cc4)c3n2)c(F)n1` [Compound I-74, 2-(2-fluoro-6-isopropoxypyridin-3-yl)-9-(4-(1-methyl-4-(trifluoromethyl)-1H-imidazol-2-yl)benzyl)-7,9-dihydro-8H-purin-8-one] gave an IC50 of 0.2 to 2 µM.
`COc1ccc(-c2ncc3[nH]c(=O)n(Cc4ccc(-c5nc(C(F)(F)F)cn5C)cc4)c3n2)c(F)n1` [Compound I-75, 2-(2-fluoro-6-methoxypyridin-3-yl)-9-(4-(1-methyl-4-(trifluoromethyl)-1H-imidazol-2-yl)benzyl)-7,9-dihydro-8H-purin-8-one] was tested, and the IC50 was 0.05 to 0.2 µM.
In the case of `CC(C)c1ncccc1-c1ncc2[nH]c(=O)n(Cc3ccc(-c4nc(C(F)(F)F)cn4C4CC4)cc3)c2n1` [Compound I-76, 9-(4-(1-cyclopropyl-4-(trifluoromethyl)-1H-imidazol-2-yl)benzyl)-2-(2-isopropylpyridin-3-yl)-7,9-dihydro-8H-purin-8-one], the IC50 is reported as < 0.05 µM.
With `CC(C)c1ncccc1-c1ncc2[nH]c(=O)n(Cc3ccc(-n4nc(C(F)(F)F)cc4N4CCOCC4)cc3)c2n1` [Compound I-77, 2-(2-isopropylpyridin-3-yl)-9-(4-(5-morpholino-3-(trifluoromethyl)-1H-pyrazol-1-yl)benzyl)-7,9-dihydro-8H-purin-8-one] the IC50 was < 0.05 µM.
`COc1cc(C)n(-c2ccc(Cn3c(=O)[nH]c4cnc(-c5cccnc5C(C)C)nc43)cc2)n1` [Compound I-78, 2-(2-isopropylpyridin-3-yl)-9-(4-(3-methoxy-5-methyl-1H-pyrazol-1-yl)benzyl)-7,9-dihydro-8H-purin-8-one] was tested, and the IC50 was < 0.05 µM.
For `CC(C)c1ncccc1-c1ncc2[nH]c(=O)n([C@H](C)c3ccc(-c4nc(C(F)(F)F)cn4C)cc3)c2n1` [Compound I-79, (R)-2-(2-isopropylpyridin-3-yl)-9-(1-(4-(1-methyl-4-(trifluoromethyl)-1H-imidazol-2-yl)phenyl)ethyl)-7,9-dihydro-8H-purin-8-one], the IC50 was < 0.05 µM.
In the case of `CC(C)c1ncccc1-c1ncc2[nH]c(=O)n([C@@H](C)c3ccc(-c4nc(C(F)(F)F)cn4C)cc3)c2n1` [Compound I-80, (S)-2-(2-isopropylpyridin-3-yl)-9-(1-(4-(1-methyl-4-(trifluoromethyl)-1H-imidazol-2-yl)phenyl)ethyl)-7,9-dihydro-8H-purin-8-one], the IC50 is reported as < 0.05 µM.
In the case of `CC(C)c1ncccc1-c1ncc2[nH]c(=O)n(Cc3cc(F)c(-c4nc(C(F)(F)F)cn4C)c(F)c3)c2n1` [Compound I-82, 9-(3,5-difluoro-4-(1-methyl-4-(trifluoromethyl)-1H-imidazol-2-yl)benzyl)-2-(2-isopropylpyridin-3-yl)-7,9-dihydro-8H-purin-8-one], the IC50 is reported as < 0.05 µM.
